Experiments:
Hepatitis C virus = conditions: substance P aerosol combined with standard drug treatment of ribavirin and interferon alpha
[1] = test system: A/Hong Kong 8/68 influenza virus; set-up: species or system C57BL/6 mice; conditions: mouse, in vivo
lung protein alterations = experiment: Acute formalin exposure lung injury model, lung protein analysis by two-dimensional gel electrophoresis; format: in vivo, Fischer 344 rats
Protocol: In a third system, we sought to determine if Sar^9, Met (O2)^11-substance P-treated Fischer 344 rats who were exposed to 67 mg/m^3 […] aerosolize formalin for 1.5 minutes would attenuate lung protein alterations. At approximately 42 minutes post-formalin or air exposure, rat lungs were removed for protein analysis. […] Among these 71 proteins were fibrinogen-related proteins.

Compound: CSCC[C@H](NC(=O)[C@H](CC(C)C)NC(=O)CNC(=O)[C@H](Cc1ccccc1)NC(=O)[C@H](Cc1ccccc1)NC(=O)[C@H](CCC(N)=O)NC(=O)[C@H](CCC(N)=O)NC(=O)[C@@H]1CCCN1C(=O)[C@H](CCCCN)NC(=O)[C@@H]1CCCN1C(=O)[C@@H](N)CCCN=C(N)N)C(N)=O [substance P]
- deleterious effects of ribavirin and interferon alpha (loss of appetite, nausea, vomiting, weight loss) (Hepatitis C virus): eliminated

Compound: Sar^9, Met (O2)^11-substance P
- development of influenza symptoms (decreased body mass, fever, dehydration, nasal discharge) [1]: did not develop influenza symptoms
- leukotriene B4 levels relative to A/Hong Kong 8/68 virus only mice [1]: 33%
- lung cell counts after broncho-alveolar lavage [1]: normal lung cell counts
- signs of lung injury (electron micrographs) [1]: did not observe any signs of lung injury
- number of lung proteins whose formalin-mediated abundance changes were attenuated (lung protein alterations; 67 mg/m^3 aerosolized formalin for 1.5 minutes, lungs removed about 42 minutes post-exposure, includes fibrinogen-related proteins): 71 proteins
- lung fibrinogen concentrations after acute formalin exposure (proteomic analyses) (lung protein alterations; acute lung injury model): preserve fibrinogen concentrations
